IC50 data for one compound are collected here from BindingDB's records for doi:10.1074/jbc.M114.566729 (University of Colorado School of Medicine, 2014).

The target of this experiment is T1, Eyes absent homolog 2 [253-538] (Human, UniProt O00167).
T1 construct: 253-538
T1 sequence (O00167 whole entry): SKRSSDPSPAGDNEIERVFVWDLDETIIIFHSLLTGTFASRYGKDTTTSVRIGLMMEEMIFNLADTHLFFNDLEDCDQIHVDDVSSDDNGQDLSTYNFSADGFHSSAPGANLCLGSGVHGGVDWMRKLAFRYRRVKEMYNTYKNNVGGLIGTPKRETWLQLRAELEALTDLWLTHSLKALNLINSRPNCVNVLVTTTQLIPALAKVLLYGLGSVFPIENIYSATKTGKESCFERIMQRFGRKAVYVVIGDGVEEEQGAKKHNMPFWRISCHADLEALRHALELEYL
In words: Eya Phosphatase Assay. The conditions noted are these: pH 6.5; 25 °C. The protocol: Eya activity was measured in 50-μl reactions using black, 96-well, half-volume microtiter plates (Greiner Bio-one) with the substrate OMFP (3-O-methylfluoresceinphosphate, Sigma-Aldrich), which is converted to a fluorescent product OMF upon dephosphorylation. […] Reactions were started by the addition of OMFP, preceded for 1 h at room temperature followed by terminating the reaction with the addition of 75mMEDTA.

Molecules are shown by their SMILES.

On to `O=C(N/N=C/c1ccc(Sc2ccccn2)s1)c1cccc(F)c1` [NCGC00249327], for which half-maximal inhibition (IC50) was put at 2.9 µM. That is a single-digit micromolar value.

By IC50 is commonly meant the concentration that gives 50% inhibition.
